Source: US20070060651A1, “Compositions and methods for improving functional vascular cellular survival integrity and reducing apoptosis in ischemia” (NESTEC S.A., priority 2005, published 2007)

Experiments:
[1] = tested on: growth factors and anti-inflammatory proteins; test: Expression of growth factors and anti-inflammatory proteins in dogs on supplemental arginine; format: in vivo, dog; conditions: dietary supplementation
[2] = tested on: transient cerebral ischemia in an ovariectomized rat model; test: Ischemic lesion (infarct) volume by TTC staining after transient middle cerebral artery (tMCA) occlusion; format: in vivo; conditions: all rats; vs control diet; 60 min tMCA occlusion, 24 hours reperfusion; FIG. 1
Description: Animals. Female Charles Rivers Sprague-Dawley rats (250 g, Wilmington, Mass.) were acclimatized to animal facilities three days prior to surgery with a 12 hour light-dark cycle. Bilateral ovariectomy was performed 2 weeks before diet feeding began. Four weeks after the start of diet feeding, transient middle cerebral artery (tMCA) occlusion under anesthesia was performed following intraperitoneal (i.p.) injection of ketamine (60 mg/kg) and xylazine (10 mg/kg).
Diet and Hormone Administration. Fourteen to 15 rats per group were randomly assigned to one of five treatment groups. These groups were as follows: […]
All diets were fed ad libitum to the rats for four weeks. […] Also once per week, body weights and food intake were determined. […]
Middle cerebral artery occlusion and samples preparation. […] Rectal temperature was monitored and maintained between 36.5 and 37° C. with a heating pad throughout the procedure. […]
Some animals were eliminated from the study during the protocol. The number of animals quantified for lesion volume ranged from 12 to 15 per group.
Statistical methods. Results were analyzed with one-way analysis of variance (ANOVA) using Prism software(Graphpad Inc; San Diego, Calif.). The significance of differences among groups was determined by one-way ANOVA followed by Tukey's multiple comparison tests. All values were expressed as mean +/−SEM.

[3] = tested on: transient cerebral ischemia in an ovariectomized rat model; test: Cerebral ischemia-induced apoptosis by TUNEL staining after tMCA occlusion; format: in vivo; conditions: average of three brain regions, normalized to DAPI total cells; vs control; FIG. 3

Compound	expression of multiple growth factors and anti-inflammatory proteins [1]	effect on infarct size / mean infarct volume (in words) [2]	TUNEL staining / TUNEL-positive cell counts (apoptosis), in words [3]
N=C(N)NCCC[C@H](N)C(=O)O [arginine, L-arginine]	increased expression of multiple growth factors and anti-inflammatory proteins in a dose-dependent manner		
C[C@]12CC[C@@H]3c4ccc(O)cc4CC[C@H]3[C@@H]1CC[C@@H]2O [estradiol, 17 β-estradiol]		reduced infarct size	substantial reduction in TUNEL staining
